Test results taken from patent US12486283B2, “Crystalline salt of eribulin” (priority 2020, dated 2025).
Entries after “also recorded” stand apart in the source; their conditions may differ. Structures can show the parent of a compound that is named as a salt.

What was measured:
Assay type in all cases: physicochemical
[1] = Hygroscopicity test by dynamic vapor adsorption and desorption (DVS); conditions: for hygroscopicity compared with amorphous eribulin mesylate: 25° C. and 80% RH; for stability to moisture compared with amorphous eribulin mesylate: DVS hygroscopicity test; for crystalline form after the hygroscopicity test: after the test was completed
Experimental: Eribulin edisylate obtained in Examples 2, 5, and 7 and the amorphous eribulin mesylate, which is the active component of commercially available Halaven, were subjected to hygroscopicity test by repeating moisture adsorption and desorption once at an interval of 5% RH in an isothermal condition of 25° C. and a relative humidity of 2 to 98% using dynamic vapor adsorption and desorption (DVS) (dynamic vapor adsorption, VTI SGA-100, TA Instruments).

[2] = Stability test: properties (appearance) and X-ray powder diffraction analysis after storage; conditions: 40±2° C., 75±5% RH
Experimental: Diffraction patterns were obtained in the range of 3 to 40° 2θ using a X-ray powder diffractometer, and the X-ray powder diffraction analysis conditions were as follows. • Instrument: BrukerA26X1 D2 Phaser • Time per step: 0.5 s • Scanning method: Continuous PSD fast • Detector: Lynxeye (1D mode) (2) Differential Scanning Calorimetry (DSC)
(§1) After 2 weeks and 4 weeks of storage, the occurrence and increase of related substances in each sample were evaluated by high-performance liquid chromatography, and changes were confirmed by X-ray powder diffraction analysis and differential scanning calorimetry to evaluate stability.

[3] = Stability test: purity / related substances by high-performance liquid chromatography after storage; conditions: 75±5% RH; for purity by high-performance liquid chromatography: stored sealed in amber vial at 40±2° C.
Experimental: as §1

change in properties ([2]; whole stability test period (4 weeks)) | decrease in purity (increase in related substances) ([3]; 40±2° C., during 4 weeks) [%] | Compound | deliquescence during the hygroscopicity test ([1]; DVS, 25° C., 2 to 98% RH) | change in properties ([2]; 2nd week) | change in properties ([2]; 4th week) | solid state over time in the stability test ([2]; over time) | X-ray powder diffraction analysis result (solid form) ([2]; time 0 week) | X-ray powder diffraction analysis result (solid form) ([2]; time 0 week, listed as eribulin mesylate) | X-ray powder diffraction analysis result (solid form) ([2]; time 2 weeks) | X-ray powder diffraction analysis result (solid form) ([2]; time 4 weeks) | purity by high-performance liquid chromatography ([3]; time 0 week) [%] | purity by high-performance liquid chromatography ([3]; time 2 weeks) [%] | purity by high-performance liquid chromatography ([3]; time 4 weeks) [%] | purity by high-performance liquid chromatography ([3]; time 4 weeks, listed as eribulin mesylate) [%] | hygroscopicity compared with amorphous eribulin mesylate [1] | stability to moisture compared with amorphous eribulin mesylate ([1]; 25° C.) | crystalline form after the hygroscopicity test ([1]; DVS, 25° C., 2 to 98% RH) | Hygroscopicity (EP standard (25° C., 80% RH)) ([1]; DVS, 25° C.) [%] | stability to heat and humidity compared with eribulin mesylate ([3]; 40±2° C., up to 4 weeks, Ammonium Salt)
– | – | C=C1C[C@@H]2CC[C@@]34C[C@H]5O[C@H]6[C@@H](O3)[C@H]3O[C@H](CC[C@@H]3O[C@H]6[C@H]5O4)CC(=O)C[C@@H]3[C@@H](OC)[C@@H](C[C@H](O)CN)O[C@H]3C[C@H]3O[C@@H](CC[C@@H]1O2)C[C@@H](C)C3=C.CS(=O)(=O)O [Eribulin mesylate] | deliquescence was observed | the solid deliquesced and the color changed to yellow | the deliquescent state was maintained and the color changed from yellow to brown | deliquescence was observed | amorphous | amorphous solid | deliquescence | deliquescence | 99.66 | 88.00 | 7.30 | 7 | – | – | – | – | –
No change in properties | ≤ 0.5 | C=C1C[C@@H]2CC[C@@]34C[C@H]5O[C@@H]6C(O[C@H]7CC[C@H](CC(=O)C[C@@H]8[C@@H](OC)[C@@H](C[C@H](O)CN)O[C@H]8C[C@H]8O[C@@H](CC[C@@H]1O2)C[C@@H](C)C8=C)O[C@@H]7[C@@H]6O3)[C@H]5O4 [Example 2, Eribulin Edisylate Ammonium Salt] | – | – | – | – | crystalline | – | maintain | maintain | 99.73 | 99.50 | 99.35 | – | lower hygroscopicity | superior stability to moisture | initial crystalline form was maintained | 5.4 | excellent stability to heat and humidity; also recorded: more stable to heat and humidity
– | – | Eribulin Edisylate Cyclohexylamine Salt [Example 5] | – | – | – | – | – | – | – | – | – | – | – | – | lower hygroscopicity | superior stability to moisture | initial crystalline form was maintained | 5.2 | –
– | – | Eribulin Edisylate Dicyclohexylamine Salt [Example 7] | – | – | – | – | – | – | – | – | – | – | – | – | lower hygroscopicity | superior stability to moisture | initial crystalline form was maintained | 5.6 | –
